Measurements from patent US20140242093A1, “METHODS AND COMPOSITIONS FOR MODULATING THE INNATE IMMUNE RESPONSE AND/OR MYOGENESIS IN A MAMMALIAN SUBJECT” (FRED HUTCHINSON CANCER RESEARCH CENTER, priority 2011, published 2014).

Tested on: control human primary myoblasts
Assay: Expression microarray of primary myoblasts transduced with lentivirus carrying DUX4-fl, DUX4-s or GFP
Description: Primary human myoblasts were collected and cultured as previously described (Snider et al., 2010). Primary myoblasts were maintained at or below 70% confluency for proliferation. For differentiation, cells were allowed to reach 95-100% confluency in growth medium. Once confluency was reached, the cells were changed to differentiation medium (F10 media supplemented with 1% horse serum, 10 μg/mL insulin, and 10 μg/mL transferrin, penicillin/streptomycin) and maintained for 4 days. Human RD cells were grown in DMEM in 10% bovine calf serum (Hyclone) and penicillin/streptomycin. The primary myoblasts were transduced with lentivirus carrying DUX-fl, DUX4- or GFP (MOI=15).
Expression microarrays were performed on the transduced cells at 24 hours after transduction as follows. […] Samples were analyzed by Illumina Human Whole Genome microarrays. Probe intensities were corrected, normalized, and summarized by the Lumi package of Bioconductor (Du et al., 2008). Differentially expressed genes were identified by the LIMMA package of Bioconductor (Wettenhall and Smyth, 2004). Gene set enrichment analysis (GSEA) was performed using the Bioconductor GOstats package (Falcon and Gentleman, 2007).

DUX4-fl: full-length DUX4 protein (SEQ ID NO:110), expressed from lentiviral or pCS2 vectors or in vitro translated
GTF2F1 expression fc (Refseq NM_002096.1): 3.208
HLA-A fc (Refseq NM_002116.5): −1.08
HMOX1 expression fc (Refseq NM_002133.1, cultured human skeletal muscle): −1.924
HOXB2 expression fc (Refseq NM_002145.3): 2.202
HSPA6 expression fc (Refseq NM_002155.3): 1.994
ID2 expression fc (Refseq NM_002166.4): 2.336
fc of IFNB1 (expression array) (Refseq NM_002176.2): −0.3894
INSM1 expression fc (Refseq NM_002196.2): 1.801
IRF1 expression fc (Refseq NM_002198.1, cultured human skeletal muscle): −2.643
ISG20 expression fc (Refseq NM_002201.4, cultured human skeletal muscle): −2.94
fc of ITGA3 (expression array) (Refseq NM_002204.1): −1.041
fc of JUNB (expression array) (Refseq NM_002229.2): −1.063
JUP expression fc (Refseq NM_002230.1): 3.172
KPNA2 expression fc (Refseq NM_002266.2): 2.416
fc of LAMC1 (expression array) (Refseq NM_002293.2): −0.5108
fc of LSS (expression array) (Refseq NM_002340.3): −1.045
LTBR fc (Refseq NM_002342.1): −1.155
LUM fc (Refseq NM_002345.3): −1.126
LY6E expression fc (Refseq NM_002346.1, cultured human skeletal muscle): −3.251
fc of MDM2 (expression array) (Refseq NM_002392.2): −0.588
MX1 expression fc (Refseq NM_002462.2, cultured human skeletal muscle): −5.675
MX2 expression fc (Refseq NM_002463.1, cultured human skeletal muscle): −4.066
fc of MYF6 (expression array) (Refseq NM_002469.1): −1.042
MYOD1 fc (Refseq NM_002478.4): −1.113
NFYA expression fc (Refseq NM_002505.3): 2.335
OAS2 expression fc (Refseq NM_002535.2, cultured human skeletal muscle): −2.711
ODC1 expression fc (Refseq NM_002539.1): 3.657
PDE4B fc (Refseq NM_002600.3): −1.143
PFKP fc (Refseq NM_002627.3): −1.106
PIM1 expression fc (Refseq NM_002648.2): 2.215
EXOSC10 expression fc (Refseq NM_002685.2): 1.937
PNN expression fc (Refseq NM_002687.3): 1.949
PRKD1 fc (Refseq NM_002742.2): −1.099
PSMB9 expression fc (Refseq NM_002800.4, cultured human skeletal muscle): −3.137
PTX3 expression fc (Refseq NM_002852.2, cultured human skeletal muscle): −2.744
PYGB expression fc (Refseq NM_002862.3, cultured human skeletal muscle): −2.046
fc of RAB13 (expression array) (Refseq NM_002870.2): −1.032
fc of RBMS1 (expression array) (Refseq NM_002897.3): −0.6159
fc of RBMS2 (expression array) (Refseq NM_002898.2): −0.772
RXRA fc (Refseq NM_002957.3): −1.132
CCL2 expression fc (Refseq NM_002982.3, cultured human skeletal muscle): −2.681
CCL5 expression fc (Refseq NM_002985.2, cultured human skeletal muscle): −2.528
CXCL6 expression fc (Refseq NM_002993.2, cultured human skeletal muscle): −1.994
CXCL5 expression fc (Refseq NM_002994.3, cultured human skeletal muscle): −2.469
SLC2A5 expression fc (Refseq NM_003039.1, cultured human skeletal muscle): −1.958
SLC22A4 fc (Refseq NM_003059.2): −1.134
SNAI2 expression fc (Refseq NM_003068.3, cultured human skeletal muscle): −2.095
fc of SMARCD3 (expression array) (Refseq NM_003078.3): −1.022
SNRNP70 expression fc (Refseq NM_003089.4): 1.885
SOX4 expression fc (Refseq NM_003107.2): 1.809
SPG7 fc (Refseq NM_003119.2): −1.113
SRP19 expression fc (Refseq NM_003135.1): 1.866
fc of STRN (expression array) (Refseq NM_003162.2): −0.2348
THBS1 fc (Refseq NM_003246.2): −1.092
UBA7 expression fc (Refseq NM_003335.2, cultured human skeletal muscle): −2.561
fc of UGCG (expression array) (Refseq NM_003358.1): −0.8891
WEE1 fc (Refseq NM_003390.2): −1.099
WNT5A fc (Refseq NM_003392.3): −1.103
fc of XPO1 (expression array) (Refseq NM_003400.3): −1.04
fc of ZFP36 (expression array) (Refseq NM_003407.2): −1.044
ZKSCAN1 fc (Refseq NM_003439.1): −1.082
fc of Cxorfl2 (expression array) (Refseq NM_003492.1): −1.02
fc of TAGLN2 (expression array) (Refseq NM_003564.1): −1.002
fc of EEA1 (expression array) (Refseq NM_003566.2): −0.963
IFITM1 expression fc (Refseq NM_003641.3, cultured human skeletal muscle): −6.118
fc of VAMP8 (expression array) (Refseq NM_003761.2): −1.02
fc of VAMP4 (expression array) (Refseq NM_003762.3): −1.018
RNGTT expression fc (Refseq NM_003800.3): 2.018
RIPK1 fc (Refseq NM_003804.3): −1.103
TNFSF10 fc (Refseq NM_003810.2): −1.127
TNFRSF14 expression fc (Refseq NM_003820.2, cultured human skeletal muscle): −2.72
fc of RIOK3 (expression array) (Refseq NM_003831.2): −0.5229
TNFRSF10A fc (Refseq NM_003844.2): −1.126
PEX11B fc (Refseq NM_003846.1): −1.142
CES2 expression fc (Refseq NM_003869.4, cultured human skeletal muscle): −2.043
CFLAR expression fc (Refseq NM_003879.3, cultured human skeletal muscle): −1.94
fc of ASAP2 (expression array) (Refseq NM_003887.2): −1.028
CCNA1 expression fc (Refseq NM_003914.2): 7.526
fc of USP13 (expression array) (Refseq NM_003940.2): −0.08799
NPR2 fc (Refseq NM_003995.3): −1.166
fc of OSMR (expression array) (Refseq NM_003999.1): −0.7417
